Measurements reported in PMC11648822, “Lactam Truncation Yields a Dihydroquinazolinone Scaffold with Potent Antimalarial Activity that Targets PfATP4” (Chemmedchem, 2024).

Biological target: T1, Dd2‐PfATP4^G358S (Plasmodium falciparum, UniProt A0A143ZZK9, G1128R/G358S)
T1 construct: We prepared membranes from Dd2‐Polδ‐PfATP4^G358S parasites (generated previously[22]); endogenous in cells; host or cells: P. falciparum Dd2-Polδ-PfATP4^G358S trophozoites (membrane preparation)
T1 sequence (A0A143ZZK9 1-1264 G358S/G1128R): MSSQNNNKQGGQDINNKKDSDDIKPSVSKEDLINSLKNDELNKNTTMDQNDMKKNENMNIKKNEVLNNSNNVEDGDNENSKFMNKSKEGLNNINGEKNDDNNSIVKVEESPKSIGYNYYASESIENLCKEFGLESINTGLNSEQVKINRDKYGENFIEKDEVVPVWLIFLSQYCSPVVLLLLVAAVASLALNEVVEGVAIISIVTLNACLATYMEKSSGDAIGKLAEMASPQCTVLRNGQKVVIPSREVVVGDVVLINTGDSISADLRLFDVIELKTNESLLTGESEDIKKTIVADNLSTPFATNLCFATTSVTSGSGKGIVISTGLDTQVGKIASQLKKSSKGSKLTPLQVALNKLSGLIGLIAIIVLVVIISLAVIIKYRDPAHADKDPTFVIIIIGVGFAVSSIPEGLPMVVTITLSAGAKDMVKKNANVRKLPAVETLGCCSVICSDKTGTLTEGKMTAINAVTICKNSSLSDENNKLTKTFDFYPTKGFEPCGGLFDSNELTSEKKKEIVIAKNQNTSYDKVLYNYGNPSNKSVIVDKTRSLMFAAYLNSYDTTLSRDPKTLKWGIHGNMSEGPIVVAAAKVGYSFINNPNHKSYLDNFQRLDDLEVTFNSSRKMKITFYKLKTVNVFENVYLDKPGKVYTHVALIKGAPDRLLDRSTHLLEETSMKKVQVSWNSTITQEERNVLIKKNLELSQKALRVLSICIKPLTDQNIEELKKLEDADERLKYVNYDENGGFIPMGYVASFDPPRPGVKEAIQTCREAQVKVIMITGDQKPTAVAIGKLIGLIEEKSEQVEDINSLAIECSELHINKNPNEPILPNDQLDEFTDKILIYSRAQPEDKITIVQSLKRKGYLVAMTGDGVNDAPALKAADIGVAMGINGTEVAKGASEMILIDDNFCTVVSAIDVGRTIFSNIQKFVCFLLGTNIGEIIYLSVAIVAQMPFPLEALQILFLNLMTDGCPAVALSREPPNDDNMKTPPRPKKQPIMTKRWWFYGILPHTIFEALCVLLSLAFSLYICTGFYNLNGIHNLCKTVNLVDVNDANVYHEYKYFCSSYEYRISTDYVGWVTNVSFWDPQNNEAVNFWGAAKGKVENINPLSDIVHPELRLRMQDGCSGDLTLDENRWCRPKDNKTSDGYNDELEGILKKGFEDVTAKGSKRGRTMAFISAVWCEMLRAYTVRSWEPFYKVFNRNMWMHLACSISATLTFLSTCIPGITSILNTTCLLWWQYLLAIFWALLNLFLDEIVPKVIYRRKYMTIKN
Assay: PfATP4 Na+ assay (membrane ATPase), Dd2-Polδ-PfATP4^G358S membranes
Assay type: biochemical, P. falciparum
Conditions: membranes from Dd2-Polδ-PfATP4^G358S parasites
Procedure: Figure 4 Dihydroquinazolinone analogs 14 and 36 (WJM062) inhibit Na^+‐ATPase activity in membranes prepared from isolated P. falciparum parasites, consistent with them being PfATP4 inhibitors. (A) The effects of dihydroquinazolinone compounds (2 μM), dihydroartemisinin (DHA; 50 nM; negative control) and 0.2 % v/v DMSO (solvent‐only control) on membrane ATPase activity under high‐[Na^+] conditions (152 mM Na^+) and low‐[Na^+] conditions (2 mM Na^+; stemming from the addition of 1 mM Na2ATP) in the presence and absence of the PfATP4 inhibitor cipargamin (50 nM). The membranes were prepared from isolated trophozoite‐stage 3D7 parasites. The Pi produced is expressed as a percentage of that measured in the 152 mM Na^+ Control. The data are from four independent experiments performed with different membrane preparations; the symbols show the data from individual experiments and the bars show the mean (+SEM). In individual experiments, the Pi produced in the 152 mM Na^+ Control varied from 66 to 96 nmol per mg (total) protein per min. A repeated measures ANOVA with a post hoc Tukey test was used to compare the (pre‐normalised) data for different compounds and conditions. […] In B−D, the Pi production measured in the low‐[Na^+] (2 mM) condition was subtracted from that measured in high‐[Na^+] […] The PfATP4‐associated ATPase activity is expressed as a percentage of that obtained for the high‐[Na^+] […]

SMILES: CN1C(=O)c2ccc(Cl)cc2NC1(C)C(=O)Nc1cncc(Cl)c1 (centres unmarked) [Compound 14, 7‐Chloro‐N‐(5‐chloro‐3‐pyridyl)‐2,3‐dimethyl‐4‐oxo‐1H‐quinazoline‐2‐carboxamide]
- EC50: 12.1 nM

SMILES: COc1cc(F)c2c(c1)NC(C)(C(=O)Nc1cncc(Cl)c1)N(C)C2=O (centres unmarked) [Compound 36, N‐(5‐Chloropyridin‐3‐yl)‐5‐fluoro‐7‐methoxy‐2,3‐dimethyl‐4‐oxo‐1,2,3,4‐tetrahydroquinazoline‐2‐carboxamide]
- EC50: 11.6 nM
